Values after ≈ are worked out from the molar mass of the structure shown.
Tested on: Mycobacterium tuberculosis
Experiment: Antitubercular activity against Mycobacterium bovis BCG ATCC 35743 dormant stage by nitrate reductase based two-fold dilution assay
Assay type: functional
Settings: BCG str. ATCC 35743

SMILES	IC50	MIC90
Cc1nc(-c2ccccc2)oc1-c1csc(Cc2cccc(Cl)c2)n1	760 nM	3.76 µM (≈ 1.38 µg/mL)

Tested on: Mycobacterium tuberculosis
Experiment: Growth inhibition of Mycobacterium bovis BCG ATCC 35743 at 10 ug/ml by nitrate reductase based two-fold dilution assay relative to control
Assay type: functional
Settings: BCG str. ATCC 35743, read-out: GI

SMILES	inhibition of growth at 10 µg/mL
Cc1nc(-c2ccccc2)oc1-c1csc(Cc2cccc(Cl)c2)n1	94%

Tested on: HeLa
Experiment: (§1) Growth inhibition of human HeLa cells by MTT assay
Assay type: cell-based
Settings: hela

SMILES	GI90
Cc1nc(-c2ccccc2)oc1-c1csc(Cc2cccc(Cl)c2)n1	> 250 µg/mL

Tested on: not listed separately
Experiment: as §1
Assay type: cell-based
Settings: HeLa cells

SMILES	GI50
Cc1nc(-c2ccccc2)oc1-c1csc(Cc2cccc(Cl)c2)n1	68.7 µg/mL (≈ 187 µM)

Tested on: not listed separately
Experiment: Selectivity index, ratio of GI50 for human HeLa cells to MIC for Mycobacterium bovis BCG ATCC 35743 dormant stage
Assay type: toxicity, cell-based
Settings: read-out: Selectivity Index

SMILES	selectivity ratio
Cc1nc(-c2ccccc2)oc1-c1csc(Cc2cccc(Cl)c2)n1	50

Tested on: Mycobacterium tuberculosis
Experiment: Growth inhibition of Mycobacterium bovis BCG ATCC 35743 at 1 ug/ml by nitrate reductase based two-fold dilution assay relative to control
Assay type: functional
Settings: BCG str. ATCC 35743, read-out: GI

SMILES	inhibition of growth at 1 µg/mL
Cc1nc(-c2ccccc2)oc1-c1csc(Cc2cccc(Cl)c2)n1	94%

Tested on: Escherichia coli
Experiment: Growth inhibition of Escherichia coli NCIM 2576 at 1 ug/ml measured after 8 hrs relative to control
Assay type: functional
Settings: NCIM 2576, 8 h, read-out: GI

SMILES	inhibition of growth at 1 µg/mL
Cc1nc(-c2ccccc2)oc1-c1csc(Cc2cccc(Cl)c2)n1	74.7%

Tested on: Escherichia coli
Experiment: Growth inhibition of Escherichia coli NCIM 2576 at 10 ug/ml measured after 8 hrs relative to control
Assay type: functional
Settings: NCIM 2576, 8 h, read-out: GI

SMILES	inhibition of growth at 10 µg/mL
Cc1nc(-c2ccccc2)oc1-c1csc(Cc2cccc(Cl)c2)n1	88.7%

Tested on: not listed separately
Experiment: Selectivity index, ratio of GI50 for human HeLa cells to MIC for Mycobacterium tuberculosis H37Ra ATCC 25177 dormant stage
Assay type: toxicity, cell-based
Settings: read-out: Selectivity Index

SMILES	selectivity ratio
Cc1nc(-c2ccccc2)oc1-c1csc(Cc2cccc(Cl)c2)n1	54

Tested on: Mycobacterium tuberculosis
Experiment: Growth inhibition of Mycobacterium tuberculosis H37Ra ATCC 25177 at 3 ug/ml by XTT dye based two-fold dilution method relative to control
Assay type: functional
Settings: read-out: GI

SMILES	inhibition of growth at 3 µg/mL
Cc1nc(-c2ccccc2)oc1-c1csc(Cc2cccc(Cl)c2)n1	96%

Tested on: not listed separately
Experiment: Selectivity index, ratio of GI50 for human A549 cells to MIC for Mycobacterium bovis BCG ATCC 35743 dormant stage
Assay type: toxicity
Settings: read-out: Selectivity Index

SMILES	selectivity ratio
Cc1nc(-c2ccccc2)oc1-c1csc(Cc2cccc(Cl)c2)n1	181

Tested on: not listed separately
Experiment: Selectivity index, ratio of GI50 for human PANC1 cells to MIC for Mycobacterium tuberculosis H37Ra ATCC 25177 dormant stage
Assay type: toxicity
Settings: PANC-1 cells, read-out: Selectivity Index

SMILES	selectivity ratio
Cc1nc(-c2ccccc2)oc1-c1csc(Cc2cccc(Cl)c2)n1	195

Tested on: Pseudomonas fluorescens
Experiment: Antibacterial activity against Pseudomonas fluorescens NCIM 2059 measured after 8 hrs
Assay type: functional
Settings: NCIM 2059, 8 h

SMILES	MIC
Cc1nc(-c2ccccc2)oc1-c1csc(Cc2cccc(Cl)c2)n1	20.9 µg/mL (≈ 57 µM)

Tested on: Mycobacterium tuberculosis
Experiment: Growth inhibition of Mycobacterium bovis BCG ATCC 35743 at 30 ug/ml by nitrate reductase based two-fold dilution assay relative to control
Assay type: functional
Settings: BCG str. ATCC 35743, read-out: GI

SMILES	inhibition of growth at 30 µg/mL
Cc1nc(-c2ccccc2)oc1-c1csc(Cc2cccc(Cl)c2)n1	95%

Tested on: Bacillus subtilis
Experiment: Growth inhibition of Bacillus subtilis NCIM 2162 at 30 ug/ml measured after 12 hrs relative to control
Assay type: functional
Settings: NCIM 2162, 12 h, read-out: GI

SMILES	inhibition of growth at 30 µg/mL
Cc1nc(-c2ccccc2)oc1-c1csc(Cc2cccc(Cl)c2)n1	92%

Tested on: not listed separately
Experiment: Selectivity index, ratio of GI50 for human A549 cells to MIC for Mycobacterium tuberculosis H37Ra ATCC 25177 dormant stage
Assay type: toxicity
Settings: read-out: Selectivity Index

SMILES	selectivity ratio
Cc1nc(-c2ccccc2)oc1-c1csc(Cc2cccc(Cl)c2)n1	195

Tested on: Staphylococcus aureus
Experiment: Growth inhibition of Staphylococcus aureus NCIM 2602 at 30 ug/ml measured after 12 hrs relative to control
Assay type: functional
Settings: NCIM 2602, 12 h, read-out: GI

SMILES	inhibition of growth at 30 µg/mL
Cc1nc(-c2ccccc2)oc1-c1csc(Cc2cccc(Cl)c2)n1	92.2%

Tested on: Bacillus subtilis
Experiment: Growth inhibition of Bacillus subtilis NCIM 2162 at 10 ug/ml measured after 12 hrs relative to control
Assay type: functional
Settings: NCIM 2162, 12 h, read-out: GI

SMILES	inhibition of growth at 10 µg/mL
Cc1nc(-c2ccccc2)oc1-c1csc(Cc2cccc(Cl)c2)n1	86.8%

Tested on: Bacillus subtilis
Experiment: Growth inhibition of Bacillus subtilis NCIM 2162 at 1 ug/ml measured after 12 hrs relative to control
Assay type: functional
Settings: NCIM 2162, 12 h, read-out: GI

SMILES	inhibition of growth at 1 µg/mL
Cc1nc(-c2ccccc2)oc1-c1csc(Cc2cccc(Cl)c2)n1	80.3%

Tested on: Escherichia coli
Experiment: Antibacterial activity against Escherichia coli NCIM 2576 measured after 8 hrs
Assay type: functional
Settings: NCIM 2576, 8 h

SMILES	MIC
Cc1nc(-c2ccccc2)oc1-c1csc(Cc2cccc(Cl)c2)n1	15.4 µg/mL (≈ 42 µM)

Tested on: Mycobacterium tuberculosis
Experiment: Antitubercular activity against Mycobacterium tuberculosis H37Ra ATCC 25177 dormant stage by XTT dye based two-fold dilution method
Assay type: functional
Settings: not given

SMILES	IC50	MIC90
Cc1nc(-c2ccccc2)oc1-c1csc(Cc2cccc(Cl)c2)n1	230 nM	3.49 µM (≈ 1.28 µg/mL)

Tested on: Pseudomonas fluorescens
Experiment: Growth inhibition of Pseudomonas fluorescens NCIM 2059 at 30 ug/ml measured after 8 hrs relative to control
Assay type: functional
Settings: NCIM 2059, 8 h, read-out: GI

SMILES	inhibition of growth at 30 µg/mL
Cc1nc(-c2ccccc2)oc1-c1csc(Cc2cccc(Cl)c2)n1	95.8%

Tested on: not listed separately
Experiment: (§2) Growth inhibition of human A549 cells by MTT assay
Assay type: cell-based
Settings: A549 cells

SMILES	GI50
Cc1nc(-c2ccccc2)oc1-c1csc(Cc2cccc(Cl)c2)n1	> 250 µg/mL

Tested on: A549
Experiment: as §2
Assay type: cell-based
Settings: a549

SMILES	GI90
Cc1nc(-c2ccccc2)oc1-c1csc(Cc2cccc(Cl)c2)n1	> 250 µg/mL

Tested on: Staphylococcus aureus
Experiment: Antibacterial activity against Staphylococcus aureus NCIM 2602 measured after 12 hrs
Assay type: functional
Settings: NCIM 2602, 12 h

SMILES	MIC
Cc1nc(-c2ccccc2)oc1-c1csc(Cc2cccc(Cl)c2)n1	25.6 µg/mL (≈ 69.8 µM)

Tested on: PANC-1
Experiment: (§3) Growth inhibition of human PANC1 cells by MTT assay
Assay type: cell-based
Settings: panc-1

SMILES	GI90
Cc1nc(-c2ccccc2)oc1-c1csc(Cc2cccc(Cl)c2)n1	> 250 µg/mL

Tested on: not listed separately
Experiment: as §3
Assay type: cell-based, PANC-1
Settings: PANC-1 cells

SMILES	GI50
Cc1nc(-c2ccccc2)oc1-c1csc(Cc2cccc(Cl)c2)n1	> 250 µg/mL

Tested on: Mycobacterium tuberculosis
Experiment: Growth inhibition of Mycobacterium tuberculosis H37Ra ATCC 25177 at 10 ug/ml by XTT dye based two-fold dilution method relative to control
Assay type: functional
Settings: read-out: GI

SMILES	inhibition of growth at 10 µg/mL
Cc1nc(-c2ccccc2)oc1-c1csc(Cc2cccc(Cl)c2)n1	97%

Tested on: Pseudomonas fluorescens
Experiment: Growth inhibition of Pseudomonas fluorescens NCIM 2059 at 10 ug/ml measured after 8 hrs relative to control
Assay type: functional
Settings: NCIM 2059, 8 h, read-out: GI

SMILES	inhibition of growth at 10 µg/mL
Cc1nc(-c2ccccc2)oc1-c1csc(Cc2cccc(Cl)c2)n1	82.7%

Tested on: Staphylococcus aureus
Experiment: Growth inhibition of Staphylococcus aureus NCIM 2602 at 1 ug/ml measured after 12 hrs relative to control
Assay type: functional
Settings: NCIM 2602, 12 h, read-out: GI

SMILES	inhibition of growth at 1 µg/mL
Cc1nc(-c2ccccc2)oc1-c1csc(Cc2cccc(Cl)c2)n1	73.2%

Tested on: Escherichia coli
Experiment: Growth inhibition of Escherichia coli NCIM 2576 at 30 ug/ml measured after 8 hrs relative to control
Assay type: functional
Settings: NCIM 2576, 8 h, read-out: GI

SMILES	inhibition of growth at 30 µg/mL
Cc1nc(-c2ccccc2)oc1-c1csc(Cc2cccc(Cl)c2)n1	95.9%

Tested on: Staphylococcus aureus
Experiment: Growth inhibition of Staphylococcus aureus NCIM 2602 at 10 ug/ml measured after 12 hrs relative to control
Assay type: functional
Settings: NCIM 2602, 12 h, read-out: GI

SMILES	inhibition of growth at 10 µg/mL
Cc1nc(-c2ccccc2)oc1-c1csc(Cc2cccc(Cl)c2)n1	81.3%

Tested on: Pseudomonas fluorescens
Experiment: Growth inhibition of Pseudomonas fluorescens NCIM 2059 at 1 ug/ml measured after 8 hrs relative to control
Assay type: functional
Settings: NCIM 2059, 8 h, read-out: GI

SMILES	inhibition of growth at 1 µg/mL
Cc1nc(-c2ccccc2)oc1-c1csc(Cc2cccc(Cl)c2)n1	79.3%

Tested on: Bacillus subtilis
Experiment: Antibacterial activity against Bacillus subtilis NCIM 2162 measured after 12 hrs
Assay type: functional
Settings: NCIM 2162, 12 h

SMILES	MIC
Cc1nc(-c2ccccc2)oc1-c1csc(Cc2cccc(Cl)c2)n1	21.7 µg/mL (≈ 59.1 µM)

Tested on: Mycobacterium tuberculosis
Experiment: Growth inhibition of Mycobacterium tuberculosis H37Ra ATCC 25177 at 30 ug/ml by XTT dye based two-fold dilution method relative to control
Assay type: functional
Settings: read-out: GI

SMILES	inhibition of growth at 30 µg/mL
Cc1nc(-c2ccccc2)oc1-c1csc(Cc2cccc(Cl)c2)n1	98%

Tested on: not listed separately
Experiment: Selectivity index, ratio of GI50 for human PANC1 cells to MIC for Mycobacterium bovis BCG ATCC 35743 dormant stage
Assay type: toxicity
Settings: PANC-1 cells, read-out: Selectivity Index

SMILES	selectivity ratio
Cc1nc(-c2ccccc2)oc1-c1csc(Cc2cccc(Cl)c2)n1	181

Source: ChEMBL document CHEMBL4024727, “Synthesis and antimycobacterial screening of new thiazolyl-oxazole derivatives” (Eur J Med Chem, 2017)
